Tests used:
GLUT-1 transporter = target: T1, GLUT-1 transporter (Rattus norvegicus, UniProt P11167); experiment: 3-OMG uptake by TR-iBRB2 cells (glucose transport capability); type: in vitro ADME
T1 construct: endogenous in cells; host or cells: TR-iBRB2, immortalized rat retinal capillary endothelial cells (tsA58 SV40 large T transgenic rat)
T1 sequence (P11167 1-492): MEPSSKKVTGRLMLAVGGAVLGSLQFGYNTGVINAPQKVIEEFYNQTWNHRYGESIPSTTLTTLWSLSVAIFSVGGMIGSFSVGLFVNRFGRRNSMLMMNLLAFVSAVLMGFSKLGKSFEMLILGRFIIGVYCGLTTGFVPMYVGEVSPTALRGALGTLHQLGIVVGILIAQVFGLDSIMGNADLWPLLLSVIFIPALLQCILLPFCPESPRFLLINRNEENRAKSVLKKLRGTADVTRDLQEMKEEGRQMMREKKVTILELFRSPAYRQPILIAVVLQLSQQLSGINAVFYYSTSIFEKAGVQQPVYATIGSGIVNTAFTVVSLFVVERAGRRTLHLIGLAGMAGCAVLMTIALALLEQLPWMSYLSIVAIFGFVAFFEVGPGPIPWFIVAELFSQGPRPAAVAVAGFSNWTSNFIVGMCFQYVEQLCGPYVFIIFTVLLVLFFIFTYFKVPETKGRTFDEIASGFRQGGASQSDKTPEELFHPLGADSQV
Protocol: The 3-OMG uptake was determined according to the following procedure. After removing medium by aspiration, 0.2 mL of an uptake buffer containing 232 kBq/mL of [^3H]3-OMG heated to 37° C. was added. […] After 10 seconds, the uptake buffer (1) was removed and the residue was washed with the uptake buffer (1) at 4° C. The same procedure was repeated except for changing the period of time before removing the uptake buffer (1) to 20 seconds, 30 seconds, or one minutes. The cells were solubilized in 1 mL of PBS containing 1% Triton X-100 and the radioactivity was measured using a liquid scintillation counter to confirm the linearity of the 3-OMG uptake capability. As a result, an uptake time of 20 seconds was set.
Next, the substrate concentration dependency of the 3-OMG uptake capability was examined. After washing the cells with the uptake buffer (1) heated to 37° C., 0.2 mL of the uptake buffer (1) containing 462 kBq/well of [^3H]3-OMG was added. Solutions containing 3-OMG at different concentrations were prepared by adding non-labeled 3-OMG to the uptake buffer (1) to make final concentrations of 0, 0.5, 1, 5, 10, 20, 30, and 50 mM. […] Next, the cells were solubilized overnight in 1 mL of PBS containing 1% Triton X-100 and the radioactivity was measured using a liquid scintillation counter.

GLUT-1 transport carrier = target: T2, GLUT-1 transport carrier (Rattus norvegicus, UniProt P11167); experiment: 3-OMG uptake by TR-BBB cell lines (glucose transport capability); type: in vitro ADME
T2 construct: endogenous in cells; host or cells: TR-BBB1, TR-BBB5, TR-BBB6, TR-BBB11, TR-BBB13, immortalized rat brain capillary endothelial cells
T2 sequence (P11167 1-492): T1 sequence (P11167 1-492)

TR-CSFB3 cells [1] = test system: TR-CSFB3 cells
Protocol: The concentration dependency of the resulting cells on the L-proline transport was examined to determine the L-proline transport capability.
After the uptake reaction for 30 minutes and washing three times with PBS, 1 mL of PBS containing 1% Triton X-100 was added and the mixture was allowed to stand overnight to solubilize the cells. The radioactivity was measured using a liquid scintillation counter (LS-6500 made by Beckmann Co.).

TR-CSFB3 cells [2] = experiment: Inhibition of L-proline uptake of TR-CSFB3 cells by Na+-free (choline) buffer and ouabain; type: cell-based, rat; settings: 30 minutes
Protocol: The L-proline uptake into the isolated choroid plexus is dependent on Na^+. […] However, because the experiment must be carried out under Na^+-free conditions, all Na^+ in the uptake buffer (1) was replaced with coline. […] Both reactions were carried out for 30 minutes. It was confirmed that L-proline uptake was inhibited as much as 98% under Na^+-free conditions. It was confirmed that 56% of L-proline uptake was inhibited by 1 mM ouabain. As a result, the L-proline uptake of TR-CSFB3 cells was confirmed to be Na^+-dependent.

rabbit choroid plexus = settings: read-out: Km value from rabbit choroid plexus; L-proline, Coben L. A. et al. (1972); cited from earlier work

3-o-methyl-D-glucose [3-OMG]
maximum velocity constant (Vmax) of 3-OMG uptake (GLUT-1 transporter; 20 seconds uptake, 37° C., 0-50 mM 3-OMG): 45 nmol/min/mg protein
Km (GLUT-1 transporter; read-out: Michaelis constant (Km) of 3-OMG uptake, 20 seconds uptake, 37° C., 0-50 mM 3-OMG): 5600 µM
Initial uptake rate (GLUT-1 transport carrier; TR-BBB1 cells): 8.12 ± 0.62 μ1/min/mg protein
Initial uptake rate (GLUT-1 transport carrier; TR-BBB5 cells): 10.1 ± 1.32 μ1/min/mg protein
Initial uptake rate (GLUT-1 transport carrier; TR-BBB6 cells): 7.07 ± 0.92 μ1/min/mg protein
Initial uptake rate (GLUT-1 transport carrier; TR-BBB11 cells): 10.2 ± 0.62 μ1/min/mg protein
Initial uptake rate (GLUT-1 transport carrier; TR-BBB13 cells): 8.96 ± 0.50 μ1/min/mg protein
initial uptake rate of [3H]3-OMG (GLUT-1 transport carrier; span over TR-BBB1, TR-BBB5, TR-BBB6, TR-BBB11 and TR-BBB13 cells): 7.07-10.2 μl/min/mg protein

O=C(O)[C@@H]1CCCN1 [L-proline]
Vmax of L-proline uptake (TR-CSFB3 cells [1]; 30 minutes uptake, 0.005-20 mM L-proline): 2.4 nmol/min/mg protein
Km (TR-CSFB3 cells [1]; read-out: Km of L-proline uptake, 30 minutes uptake, 0.005-20 mM L-proline): 1500 µM
inhibition of L-proline uptake under Na+-free conditions (TR-CSFB3 cells [2]; all Na+ in uptake buffer replaced with choline): 98%
Km (rabbit choroid plexus): 1100 µM

C[C@@H]1O[C@@H](O[C@H]2C[C@@H](O)[C@]3(CO)[C@H]4[C@H](O)C[C@]5(C)[C@@H](C6=CC(=O)OC6)CC[C@]5(O)[C@@H]4CC[C@]3(O)C2)[C@H](O)[C@H](O)[C@H]1O [ouabain]
inhibition at 1000 µM (TR-CSFB3 cells [2]; Rattus norvegicus, 0.5 h, 1 mM ouabain): 56%
